Experimental data reported in patent US9096601B2 (CSPC Zhongqi Pharmaceutical Technology (Shijiazhuang) Co., …, priority 2010, dated 2015).
Read-outs that look alike come from different tables or passages of the source.

Columns and labels:
EGFR L858R mutant type = EGFR L858R mutant type (Homo sapiens (Human), UniProt P00533, L858R); assay: Kinase inhibitory activity, isotopic labeling (γ-33P-ATP); type: biochemical; conditions: ATP 200 μM (Km)
Procedure: (§1) The object of this assay was to test the inventive compounds for the kinase inhibitory activity in vitro. In this assay, an isotopic labeling method was used to label the γ phosphate group on ATP. […] Staurosporine was used as a reference molecule (or referred to as a positive control). […] The IC50 value can be obtained by the calculation of the inhibitory rates at a series of different concentrations of the tested compounds.
(§2) To a reaction tube were successively added the buffer solution (8 mM MOPS, pH 7.0, 0.2 mM EDTA, 10 mM MnCl2), the kinase to be tested (5-10 mU) (EGFR/ALK/BTK/c-KIT/c-SRC/MET/PDGFRα/VEGFR2), the substrate for the kinase to be tested (a reference material), 10 mM of the solution of magnesium acetate and γ-^33 P-ATP, and different concentrations of the tested compounds. […] The reaction was terminated with […] of the 3% phosphate buffer solution. 10 μL of the reaction liquid was titrated on the Filtermat A membrane. The membrane was washed with 75 mM of the phosphate solution thrice (5 minutes each time), and then with methanol once, and finally dried. The membrane was subjected to a scintillation counting. The value of the scintillation counting reflected the phosphorylation level of the substrate and therefore could characterize the inhibition of the kinase activity.

[1] = molecular target: EGFR L858R/T790M double mutant type (Homo sapiens (Human), UniProt P00533, L858R/T790M); assay: as above; type: biochemical; conditions: ATP 45 μM (Km)
Chain of EGFR L858R/T790M double mutant type (P00533 25-1210 T790M/L858R): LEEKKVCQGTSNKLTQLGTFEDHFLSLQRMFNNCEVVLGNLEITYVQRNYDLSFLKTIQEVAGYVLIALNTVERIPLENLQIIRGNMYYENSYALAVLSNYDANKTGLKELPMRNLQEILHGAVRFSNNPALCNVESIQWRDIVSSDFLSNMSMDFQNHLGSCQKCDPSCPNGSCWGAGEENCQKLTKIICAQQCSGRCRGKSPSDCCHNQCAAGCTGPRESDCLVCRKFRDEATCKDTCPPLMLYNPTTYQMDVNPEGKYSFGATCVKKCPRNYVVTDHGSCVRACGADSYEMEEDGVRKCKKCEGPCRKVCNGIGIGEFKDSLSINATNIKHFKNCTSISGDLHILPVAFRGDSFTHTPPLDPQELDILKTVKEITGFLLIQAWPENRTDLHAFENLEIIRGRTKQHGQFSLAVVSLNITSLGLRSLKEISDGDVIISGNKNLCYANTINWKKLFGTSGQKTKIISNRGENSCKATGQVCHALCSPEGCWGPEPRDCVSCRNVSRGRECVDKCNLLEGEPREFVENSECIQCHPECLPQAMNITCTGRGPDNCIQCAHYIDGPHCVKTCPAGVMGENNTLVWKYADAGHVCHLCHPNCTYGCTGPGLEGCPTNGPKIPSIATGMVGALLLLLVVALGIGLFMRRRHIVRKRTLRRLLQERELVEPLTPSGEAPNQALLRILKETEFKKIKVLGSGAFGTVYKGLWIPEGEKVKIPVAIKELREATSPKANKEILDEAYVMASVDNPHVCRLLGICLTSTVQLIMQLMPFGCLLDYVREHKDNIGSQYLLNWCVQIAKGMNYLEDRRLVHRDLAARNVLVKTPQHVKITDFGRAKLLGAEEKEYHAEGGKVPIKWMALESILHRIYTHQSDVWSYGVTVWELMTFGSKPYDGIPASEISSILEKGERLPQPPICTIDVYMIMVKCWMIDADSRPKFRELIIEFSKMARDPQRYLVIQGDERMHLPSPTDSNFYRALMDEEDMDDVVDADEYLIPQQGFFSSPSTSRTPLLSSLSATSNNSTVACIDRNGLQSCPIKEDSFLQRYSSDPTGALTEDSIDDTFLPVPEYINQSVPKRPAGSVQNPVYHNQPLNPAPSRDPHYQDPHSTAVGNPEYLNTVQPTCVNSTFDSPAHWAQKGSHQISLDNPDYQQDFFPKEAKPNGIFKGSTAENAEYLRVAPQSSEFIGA
Procedure: as §1, §2

EGFR wild type = EGFR wild type (Homo sapiens (Human), UniProt P00533); assay: as above; type: biochemical; conditions: ATP 10 μM (Km)
Procedure: as §1, §2

ALK = ALK (Homo sapiens (Human), UniProt Q9UM73); assay: as above; type: biochemical; conditions: compound at 10 μM
Chain of ALK (Q9UM73 19-1620): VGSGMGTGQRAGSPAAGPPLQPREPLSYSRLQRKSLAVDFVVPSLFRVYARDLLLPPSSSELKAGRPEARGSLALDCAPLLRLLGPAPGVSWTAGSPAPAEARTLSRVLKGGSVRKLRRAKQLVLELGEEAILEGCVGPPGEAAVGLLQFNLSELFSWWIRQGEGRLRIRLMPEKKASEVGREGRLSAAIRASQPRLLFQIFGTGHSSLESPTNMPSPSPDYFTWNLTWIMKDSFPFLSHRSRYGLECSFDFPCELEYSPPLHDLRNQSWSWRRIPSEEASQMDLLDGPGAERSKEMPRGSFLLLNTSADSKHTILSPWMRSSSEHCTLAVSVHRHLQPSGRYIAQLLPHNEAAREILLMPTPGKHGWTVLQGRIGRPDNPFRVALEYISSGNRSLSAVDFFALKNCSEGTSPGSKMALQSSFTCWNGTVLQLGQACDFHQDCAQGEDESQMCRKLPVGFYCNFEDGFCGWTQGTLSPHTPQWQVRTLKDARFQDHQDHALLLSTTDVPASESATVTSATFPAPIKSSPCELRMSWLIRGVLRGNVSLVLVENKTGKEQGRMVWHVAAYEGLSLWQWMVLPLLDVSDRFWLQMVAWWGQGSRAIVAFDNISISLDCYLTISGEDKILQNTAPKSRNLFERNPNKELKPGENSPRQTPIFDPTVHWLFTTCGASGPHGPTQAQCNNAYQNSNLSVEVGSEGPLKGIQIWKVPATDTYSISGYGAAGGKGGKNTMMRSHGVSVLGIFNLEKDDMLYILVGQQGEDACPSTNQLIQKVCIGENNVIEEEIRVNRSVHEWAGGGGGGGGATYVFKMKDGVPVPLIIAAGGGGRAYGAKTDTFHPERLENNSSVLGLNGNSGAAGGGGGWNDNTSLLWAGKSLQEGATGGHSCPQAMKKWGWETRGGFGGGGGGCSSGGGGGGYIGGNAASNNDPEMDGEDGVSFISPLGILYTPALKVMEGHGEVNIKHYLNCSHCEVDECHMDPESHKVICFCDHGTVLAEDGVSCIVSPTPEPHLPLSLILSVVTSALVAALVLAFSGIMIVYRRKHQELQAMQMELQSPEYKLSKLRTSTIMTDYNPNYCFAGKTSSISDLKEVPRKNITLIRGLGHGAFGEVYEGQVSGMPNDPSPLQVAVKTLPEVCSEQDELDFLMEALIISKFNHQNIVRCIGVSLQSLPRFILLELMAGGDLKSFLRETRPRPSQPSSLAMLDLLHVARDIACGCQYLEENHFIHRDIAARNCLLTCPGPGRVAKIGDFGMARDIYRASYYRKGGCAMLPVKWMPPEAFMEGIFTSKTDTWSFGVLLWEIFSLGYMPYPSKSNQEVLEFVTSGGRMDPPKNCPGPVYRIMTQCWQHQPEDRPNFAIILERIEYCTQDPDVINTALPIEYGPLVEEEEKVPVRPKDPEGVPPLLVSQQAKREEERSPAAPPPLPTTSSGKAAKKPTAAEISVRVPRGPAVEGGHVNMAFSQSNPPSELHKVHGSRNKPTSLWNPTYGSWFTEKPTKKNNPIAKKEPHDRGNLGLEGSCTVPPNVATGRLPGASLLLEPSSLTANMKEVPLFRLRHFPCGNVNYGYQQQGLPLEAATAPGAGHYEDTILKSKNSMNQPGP
Procedure: (§3) The object of this assay was to test the inventive compounds for the kinase inhibitory activity in vitro. In this assay, an isotopic labeling method was used to label the γ phosphate group on ATP. EGFR (including wild type, L858R mutant type and L858R/T790M double mutant type), VEGFR2, ALK, BTK, c-KIT, c-SRC, MET, PDGFRα and FLT3 kinases were tested in vitro for the activity inhibition. Staurosporine was used as a reference molecule (or referred to as a positive control). […] The IC50 value can be obtained by the calculation of the inhibitory rates at a series of different concentrations of the tested compounds.
as §2

BTK = BTK (Homo sapiens (Human), UniProt Q06187); assay: as above; type: biochemical; conditions: compound at 10 μM
Procedure: as §3, §2

FLT3 = FLT3 (Homo sapiens (Human), UniProt P36888); assay: as above; type: biochemical; conditions: compound at 10 μM
Procedure: as §3, §2

MET = MET (Homo sapiens (Human), UniProt P08581); assay: as above; type: biochemical; conditions: compound at 10 μM
Chain of MET (P08581 25-1390): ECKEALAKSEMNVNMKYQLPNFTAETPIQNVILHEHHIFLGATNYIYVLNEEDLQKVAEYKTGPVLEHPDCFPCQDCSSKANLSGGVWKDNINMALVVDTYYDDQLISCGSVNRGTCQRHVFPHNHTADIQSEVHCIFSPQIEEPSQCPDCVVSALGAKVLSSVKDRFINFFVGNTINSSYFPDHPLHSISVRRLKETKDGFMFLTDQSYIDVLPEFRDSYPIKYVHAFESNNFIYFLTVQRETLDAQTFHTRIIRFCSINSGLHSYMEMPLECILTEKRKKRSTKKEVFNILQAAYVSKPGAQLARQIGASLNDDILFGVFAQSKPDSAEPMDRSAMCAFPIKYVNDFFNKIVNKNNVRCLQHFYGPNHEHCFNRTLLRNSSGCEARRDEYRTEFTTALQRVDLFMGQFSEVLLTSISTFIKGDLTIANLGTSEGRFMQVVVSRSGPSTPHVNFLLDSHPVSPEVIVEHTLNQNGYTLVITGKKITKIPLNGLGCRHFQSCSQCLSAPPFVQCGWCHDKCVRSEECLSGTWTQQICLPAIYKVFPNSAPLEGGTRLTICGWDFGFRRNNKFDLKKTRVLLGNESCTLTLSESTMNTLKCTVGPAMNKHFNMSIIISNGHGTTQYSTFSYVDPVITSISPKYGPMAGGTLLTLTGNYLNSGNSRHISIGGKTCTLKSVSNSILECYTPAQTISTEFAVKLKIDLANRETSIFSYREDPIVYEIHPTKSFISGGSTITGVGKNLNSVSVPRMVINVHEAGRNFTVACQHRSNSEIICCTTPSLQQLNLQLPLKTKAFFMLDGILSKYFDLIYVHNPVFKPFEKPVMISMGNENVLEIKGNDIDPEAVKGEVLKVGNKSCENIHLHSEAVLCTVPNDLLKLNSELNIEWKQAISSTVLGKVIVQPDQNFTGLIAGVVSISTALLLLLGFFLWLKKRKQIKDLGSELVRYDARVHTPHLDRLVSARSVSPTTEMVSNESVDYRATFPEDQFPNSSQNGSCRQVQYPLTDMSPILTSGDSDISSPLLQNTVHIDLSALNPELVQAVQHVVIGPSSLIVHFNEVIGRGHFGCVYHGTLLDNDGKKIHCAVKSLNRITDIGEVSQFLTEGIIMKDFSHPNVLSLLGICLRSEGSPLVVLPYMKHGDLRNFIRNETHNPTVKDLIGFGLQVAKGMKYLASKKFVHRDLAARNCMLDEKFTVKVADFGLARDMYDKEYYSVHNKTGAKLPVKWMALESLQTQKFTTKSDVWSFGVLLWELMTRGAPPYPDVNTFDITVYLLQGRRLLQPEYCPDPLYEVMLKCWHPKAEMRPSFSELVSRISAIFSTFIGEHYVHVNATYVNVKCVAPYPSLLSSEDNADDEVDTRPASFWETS
Procedure: as §3, §2

PDGFRα = PDGFRα (Homo sapiens (Human), UniProt P16234); assay: as above; type: biochemical; conditions: compound at 10 μM
Procedure: as §3, §2

VEGFR2 = VEGFR2 (Homo sapiens (Human), UniProt P35968); assay: as above; type: biochemical
Procedure: as §3, §2

c-KIT = c-KIT (Homo sapiens (Human), UniProt P10721); assay: as above; type: biochemical; conditions: compound at 10 μM
Chain of c-KIT (P10721 26-976): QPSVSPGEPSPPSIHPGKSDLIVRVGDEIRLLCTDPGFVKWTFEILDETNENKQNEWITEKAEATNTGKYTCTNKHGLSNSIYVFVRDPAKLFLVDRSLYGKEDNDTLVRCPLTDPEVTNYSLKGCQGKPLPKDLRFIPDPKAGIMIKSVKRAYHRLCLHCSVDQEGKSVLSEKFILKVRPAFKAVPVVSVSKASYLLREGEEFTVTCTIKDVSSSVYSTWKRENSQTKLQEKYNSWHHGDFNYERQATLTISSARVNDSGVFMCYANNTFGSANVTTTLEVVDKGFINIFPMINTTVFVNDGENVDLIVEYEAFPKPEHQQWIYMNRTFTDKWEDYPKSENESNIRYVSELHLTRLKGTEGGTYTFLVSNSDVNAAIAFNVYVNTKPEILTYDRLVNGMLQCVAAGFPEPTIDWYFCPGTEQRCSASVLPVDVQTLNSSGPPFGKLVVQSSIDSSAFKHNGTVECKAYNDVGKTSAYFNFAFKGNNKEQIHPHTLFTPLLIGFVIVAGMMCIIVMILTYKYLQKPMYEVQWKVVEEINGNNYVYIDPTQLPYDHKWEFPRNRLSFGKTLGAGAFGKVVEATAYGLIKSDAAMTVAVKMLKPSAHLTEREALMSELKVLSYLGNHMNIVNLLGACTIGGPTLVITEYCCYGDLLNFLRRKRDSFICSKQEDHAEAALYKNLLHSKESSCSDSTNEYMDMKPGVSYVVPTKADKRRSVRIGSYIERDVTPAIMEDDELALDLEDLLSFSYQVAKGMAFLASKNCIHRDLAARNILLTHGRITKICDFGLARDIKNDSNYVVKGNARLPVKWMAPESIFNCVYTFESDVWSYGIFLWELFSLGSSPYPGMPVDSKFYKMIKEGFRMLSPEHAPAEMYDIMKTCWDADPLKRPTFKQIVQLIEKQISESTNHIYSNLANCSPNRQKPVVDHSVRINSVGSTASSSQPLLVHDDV
Procedure: as §3, §2

c-SRC = c-SRC (Homo sapiens (Human), UniProt P12931); assay: as above; type: biochemical; conditions: compound at 10 μM
Procedure: as §3, §2

[2] = tested on: non-small cell lung carcinoma cell strain H1975 (EGFR L858R/T790M mutation); assay: In-vitro tumor cell proliferation inhibition, MTT; type: cell-based, human
[3] = tested on: non-small cell lung carcinoma cell strain H292 (EGFR WT); assay: In-vitro tumor cell proliferation inhibition, MTT; type: cell-based, human
[4] = tested on: non-small cell lung carcinoma cell strain HCC827; assay: In-vitro tumor cell proliferation inhibition, MTT; type: cell-based, human
Summary of the method: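 Cells grown in RPMI-1640 with 10% FBS, seeded overnight (HCC827 at 6×10^4 cells/ml), then exposed to graded compound concentrations for 72 h at 37 °C, 5% CO2, with 1% DMSO solvent control. MTT absorbance at 570 nm; inhibition relative to control; triplicate wells, ≥3 repeats.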

[5] = tested on: non-small cell lung carcinoma cell strain PC-9 (EGFR delE746-A750 deletion mutation); assay: In-vitro tumor cell proliferation inhibition, MTT; type: cell-based, human; conditions: 72 hours

Structure (SMILES)	IC50 (EGFR L858R mutant type)	IC50 [1]	IC50 (EGFR wild type)	The kinase activity inhibitory rate (%) by the tested compounds at 10 μM ALK (ALK)	The kinase activity inhibitory rate (%) by the tested compounds at 10 μM BTK (BTK)	The kinase activity inhibitory rate (%) by the tested compounds at 10 μM FLT3 (FLT3)	The kinase activity inhibitory rate (%) by the tested compounds at 10 μM MET (MET)	The kinase activity inhibitory rate (%) by the tested compounds at 10 μM PDGFRα (PDGFRα)	IC50 (VEGFR2; ATP 90 μM (Km))	The kinase activity inhibitory rate (%) by the tested compounds at 10 μM c-KIT (c-KIT)	The kinase activity inhibitory rate (%) by the tested compounds at 10 μM c-SRC (c-SRC)	IC50 ([2]; 72 hours)	IC50 ([3]; 72 hours)	IC50 ([4]; 72 hours)	IC50 [5]	further results
CC(C)n1c(Nc2cccc(Br)c2)nc2cnc(Nc3ccc(N4CCN(C)CC4)cc3)nc21 [Compounds 8-11]	0.004 µM	0.005 µM	0.007 µM	33%	77%	67%	93%	58%	0.14 µM	67%	98%	1.73 µM	0.0088 µM	0.0002 µM	0.0002 µM	–
CC(C)n1c(Nc2ccccc2)nc2cnc(Nc3ccc(C(=O)NN4CCN(C)CC4)cc3)nc21 [Compound 8-1]	0.008 µM	0.09 µM	0.003 µM	23%	46%	85%	83%	43%	> 1 µM	26%	11%	7.6 µM	1.39 µM	0.002 µM	0.105 µM	–
CC(C)n1c(Nc2cccc(C(F)(F)F)c2)nc2cnc(Nc3ccc(N4CCN(C)CC4)cc3)nc21 [Compounds 8-16]	0.001 µM	0.012 µM	0.003 µM	17%	57%	45%	93%	39%	> 1 µM	62%	90%	1.82 µM	0.129 µM	0.0002 µM	0.0168 µM	–
CN1CCN(c2ccc(Nc3ncc4nc(Nc5ccccc5)n(C)c4n3)cc2)CC1 [Compounds 8-24]	0.003 µM	0.522 µM	0.012 µM	8%	14%	75%	0%	29%	> 1 µM	48%	75%	> 10 µM	0.171 µM	0.0002 µM	0.006 µM	–
CC(C)n1c(Nc2ccc(NC(=O)Nc3ccc(F)c(Cl)c3)cc2)nc2cnc(Nc3ccc(N4CCN(C)CC4)cc3)nc21 [Compounds 8-21]	0.005 µM	0.005 µM	0.011 µM	97%	92%	78%	99%	100%	> 1 µM	101%	98%	7.31 µM	1.16 µM	0.0516 µM	0.0859 µM	–
C#Cc1cccc(Nc2nc3cnc(Nc4ccc(N5CCN(C)CC5)cc4)nc3n2C(C)C)c1 [Compounds 8-12]	0.003 µM	0.003 µM	0.004 µM	80%	78%	56%	93%	55%	0.05 µM	82%	98%	1.93 µM	0.0107 µM	0.0002 µM	0.0002 µM	–
COc1cc(C(=O)NN2CCN(C)CC2)ccc1Nc1ncc2nc(Nc3ccccc3)n(C(C)C)c2n1 [Compound 8-7, 3-methoxy-4-(9-isopropyl-8-phenylamino-9H-purin-2-ylamino)-N-(4-methylpiperazin-1-yl)benzamide]	–	–	–	–	–	–	–	–	–	–	–	–	–	–	–	inhibition at 10 µM (ALK; read-out: The kinase activity inhibitory rate (%) by the tested compounds at 10 μM ALK): 61%; inhibition at 10 µM (BTK; read-out: The kinase activity inhibitory rate (%) by the tested compounds at 10 μM BTK): 12%; inhibition at 10 µM (FLT3; read-out: The kinase activity inhibitory rate (%) by the tested compounds at 10 μM FLT3): 0%; inhibition at 10 µM (MET; read-out: The kinase activity inhibitory rate (%) by the tested compounds at 10 μM MET): 0%; inhibition at 10 µM (PDGFRα; read-out: The kinase activity inhibitory rate (%) by the tested compounds at 10 μM PDGFRα): 9%; IC50 (VEGFR2): > 1 µM; inhibition at 10 µM (c-KIT; read-out: The kinase activity inhibitory rate (%) by the tested compounds at 10 μM c-KIT): 8%; inhibition at 10 µM (c-SRC; read-out: The kinase activity inhibitory rate (%) by the tested compounds at 10 μM c-SRC): 28%; IC50 ([2]; Homo sapiens, NCI-H1975, 72 hours): > 10 µM; IC50 ([3]; Homo sapiens, NCI-H292, 72 hours): 0.138 µM; IC50 ([4]; Homo sapiens, HCC827, 72 hours): 0.0075 µM; IC50 ([5]; Homo sapiens): 0.0121 µM
